Literature values in patent publication US20180303793A1, “METHODS AND COMPOSITIONS FOR TREATING TRAUMATIC BRAIN INJURY” (SCYTHIAN BIOSCIENCES INC., priority 2015, published 2018).

Conditions: single agent

For CCCCCCC(C)(C)c1cc(O)c2c(c1)OC(C)(C)[C@H]1CC=C(CO)C[C@H]21 [dexanabinol, 7-hydroxy-delta6-tetrahydrocannabinol 1,1-dimethylheptyl], the intracranial pressure (one prior study) is given as “lowered intracranial pressure” and the “gliosis and the subsequent immune cascade” value (other prior studies) is given as “did not inhibit gliosis”.
